Counter-ions that a name gives are not always drawn. Like-named read-outs stand apart in the source and are kept apart here.
Tests used:
[1] = Blood brain barrier permeation; format: in vivo, ICR mice; conditions: male, ICR, mouse, po; for Kp at 1 h / Kp at 4 h: brain/plasma, read-out: B/P ratio
Method: Using 9-week-old male ICR mice, the compounds obtained in the above Examples were orally administered once at a dose of 10 mg/kg or 30 mg/kg, and after 1 hr and 4 hrs, the concentrations of the compounds in the blood and brain of the mice were determined. 3 ICR mice were assigned in each group. Plasma was separated from the blood obtained after sacrificing the mice at each time, the brain of the mice was extracted, and the […] was washed with PBS, followed by pulverizing the brain tissue. The blood was placed in a test tube containing heparin to prevent coagulation and then was centrifuged at 12,000 rpm at 4° C. for 3 min to give a supernatant from which plasma was collected. Brain tissue was weighed, and the brain was pulverized using Dounce's homogenizer after adding 3 times as much volume of PBS as the brain weight. Each of the obtained analytical samples was quantitatively analyzed using a tandem liquid chromatography-mass spectrometer (Tandem LC/MS/MS, API3000 & Agilent 1100 series). Brain permeability of a compound is expressed as a value obtained by dividing the concentration of the compound in the brain by the concentration of the compound in the plasma (B/P ratio), and when the B/P ratio is greater than 1, it means that the concentration in the brain is higher than the one in the blood.

CDK6/cyclinD3 = target: T1, CDK6/cyclinD3 (Homo sapiens, UniProt Q00534); test: Inhibition of CDK enzyme activity (ADP-Glo kinase assay); format: biochemical; conditions: 10 uM ATP, histone H1 substrate; read-out: IC50 CDK6/cyclinD
T1 construct: purchased Merck Millipore
T1 sequence (Q00534 whole entry): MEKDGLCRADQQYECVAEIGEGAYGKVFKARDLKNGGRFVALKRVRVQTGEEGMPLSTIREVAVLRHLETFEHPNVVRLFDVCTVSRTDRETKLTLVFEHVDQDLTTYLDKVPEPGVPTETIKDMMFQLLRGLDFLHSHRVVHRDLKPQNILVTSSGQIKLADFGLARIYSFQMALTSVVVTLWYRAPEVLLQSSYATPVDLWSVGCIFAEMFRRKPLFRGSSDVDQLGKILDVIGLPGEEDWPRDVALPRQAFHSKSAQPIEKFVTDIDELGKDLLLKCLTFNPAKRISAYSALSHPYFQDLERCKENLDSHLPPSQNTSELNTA
T1 sequence (P30281 whole entry partner): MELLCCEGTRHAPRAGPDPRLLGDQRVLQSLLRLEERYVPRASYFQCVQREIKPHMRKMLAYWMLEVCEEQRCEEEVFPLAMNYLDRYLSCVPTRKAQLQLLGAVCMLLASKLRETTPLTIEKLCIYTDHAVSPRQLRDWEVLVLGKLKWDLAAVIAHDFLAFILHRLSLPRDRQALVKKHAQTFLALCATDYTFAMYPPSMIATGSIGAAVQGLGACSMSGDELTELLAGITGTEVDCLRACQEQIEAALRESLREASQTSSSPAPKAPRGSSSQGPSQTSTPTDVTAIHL
Procedure, shortened: (§1)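 Kinase reactions in 50 mM Tris-HCl pH 7.5 with MgCl2, EGTA, EDTA and DTT, at 10 µM ATP. CDK2/cyclinE and CDK5/p25 were used at 10 nM and CDK6/cyclinD3 at 50 nM with 0.125 mg/ml histone H1; CDK4/cyclinD1 was used at 20 nM with 0.125 mg/ml Rb protein. After 60 min at 30 °C, ADP was read by ADP-Glo luminescence and IC50 taken from % inhibition versus no-compound control.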

CDK4/cyclinD1 = target: T2, CDK4/cyclinD1 (Homo sapiens, UniProt P11802); test: as above; format: biochemical; conditions: 10 uM ATP, Rb protein substrate; read-out: IC50 CDK4/cyclinD
T2 construct: purchased Signalchem (US)
T2 sequence (P11802 whole entry): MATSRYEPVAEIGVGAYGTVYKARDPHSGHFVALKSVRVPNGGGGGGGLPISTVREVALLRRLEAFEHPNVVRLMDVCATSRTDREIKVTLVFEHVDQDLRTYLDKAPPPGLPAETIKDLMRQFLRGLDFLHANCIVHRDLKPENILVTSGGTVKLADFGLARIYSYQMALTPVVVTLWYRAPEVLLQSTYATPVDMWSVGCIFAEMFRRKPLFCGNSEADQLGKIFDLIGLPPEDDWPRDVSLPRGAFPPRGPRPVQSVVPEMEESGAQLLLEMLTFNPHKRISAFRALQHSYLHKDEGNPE
T2 sequence (P24385 whole entry partner): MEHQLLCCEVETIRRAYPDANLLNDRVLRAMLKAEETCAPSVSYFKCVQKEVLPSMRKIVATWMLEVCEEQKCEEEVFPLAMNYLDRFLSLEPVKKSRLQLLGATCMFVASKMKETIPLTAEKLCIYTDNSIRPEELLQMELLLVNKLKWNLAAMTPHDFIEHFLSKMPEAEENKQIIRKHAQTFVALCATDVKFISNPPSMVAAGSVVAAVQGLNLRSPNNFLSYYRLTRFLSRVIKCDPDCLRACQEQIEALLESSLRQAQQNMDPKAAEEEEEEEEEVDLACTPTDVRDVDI
Procedure, shortened: as §1

CDK5/p25 = target: T3, CDK5/p25 (Homo sapiens, UniProt Q00535); test: as above; format: biochemical; conditions: 10 uM ATP, histone H1 substrate
T3 construct: purchased Merck Millipore
T3 sequence (Q00535 whole entry): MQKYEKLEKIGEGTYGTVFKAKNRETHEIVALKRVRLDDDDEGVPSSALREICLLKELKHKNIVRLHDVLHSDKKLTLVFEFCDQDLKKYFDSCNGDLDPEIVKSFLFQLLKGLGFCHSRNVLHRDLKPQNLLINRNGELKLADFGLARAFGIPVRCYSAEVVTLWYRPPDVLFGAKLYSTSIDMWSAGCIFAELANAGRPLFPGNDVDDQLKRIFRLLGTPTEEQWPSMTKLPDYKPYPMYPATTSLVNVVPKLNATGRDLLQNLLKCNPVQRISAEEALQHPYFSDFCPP
T3 sequence (Q15078 99-307 partner limits assumed): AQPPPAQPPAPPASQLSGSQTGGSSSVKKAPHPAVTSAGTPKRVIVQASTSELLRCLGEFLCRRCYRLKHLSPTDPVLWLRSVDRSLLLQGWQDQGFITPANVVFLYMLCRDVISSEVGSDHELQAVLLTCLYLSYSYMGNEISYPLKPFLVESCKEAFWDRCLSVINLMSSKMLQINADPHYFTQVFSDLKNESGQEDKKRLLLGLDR
Procedure, shortened: as §1

U-87MG = test: Inhibition of cancer cell proliferation (MTT); format: cell-based, human
Procedure, shortened: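 Absorbance at 535 nm of DMSO-dissolved formazan (2 h MTT) gives viability versus 0.08% DMSO-treated cells, and GI50 is derived from eight concentrations between 0.004 and 10 uM. Exposure lasts 72 h at 37 °C, 5% CO2, using 3000 cells/well in 10% FBS medium ([…] for NCI-H23, otherwise DMEM).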

SH-SY5Y = test: Inhibition of cancer cell proliferation (MTT); format: cell-based, human
Procedure, shortened: (§2)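 72 h MTT proliferation assay; cells seeded at 3000/well (A549, SK-N-SH, SH-SY5Y, NCI-H23) and attached 16 h at 37 °C, then treated at 0.004–10 uM with 0.08% DMSO control. Absorbance at 535 nm read after 2 h MTT; GI50 from viability relative to untreated control.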

SK-N-SH = test: Inhibition of cancer cell proliferation (MTT); format: cell-based, human
Procedure, shortened: as §2

HCT116 = test: Inhibition of cancer cell proliferation (MTT); format: cell-based, human
[2] = brain, 30 mg/kg, oral once 30 mg/kg, read-out: Concentration in the brain
[3] = plasma, 30 mg/kg, oral once 30 mg/kg, read-out: Concentration in the plasma
[4] = brain, 10 mg/kg, oral once 10 mg/kg, read-out: Concentration in the brain
[5] = plasma, 10 mg/kg, oral once 10 mg/kg, read-out: Concentration in the plasma

Q: Which concentration at 1 h [1, 2] does the source give for `Nc1nccc(-c2nc(-c3ccnc(N)c3F)ccc2O)n1` [Example 8] here?
A: 144 ng/g

Q: And the concentration at 4 h [1, 2]?
A: 70.9 ng/g

Q: What about the Kp at 1 h ([1]; 30 mg/kg, oral once 30 mg/kg) of the same compound?
A: 1.53

Q: What about the Kp at 4 h ([1]; 30 mg/kg, oral once 30 mg/kg) of the same compound?
A: 2.41

Q: What about the concentration at 1 h [1, 3] of the same compound?
A: 94.3 ng/mL

Q: What about the concentration at 4 h [1, 3] of the same compound?
A: 29.4 ng/mL

Q: What about the IC50 (CDK6/cyclinD3) of the same compound?
A: 47 nM

Q: And the IC50 (CDK4/cyclinD1)?
A: 108 nM

Q: What about the IC50 (CDK5/p25) of the same compound?
A: 0.22 nM

Q: And the GI50 (U-87MG; 72 hrs)?
A: 60 nM

Q: And the GI50 (SH-SY5Y; 72 hrs)?
A: 10 nM

Q: And the GI50 (SK-N-SH; 72 hrs)?
A: 10 nM

Q: What about the GI50 (HCT116; 72 hrs) of the same compound?
A: 10 nM

Q: With `Nc1nccc(-c2ccc(O)c(-c3ccnc(N)n3)n2)n1` [Example 61, 2,6-bis(2-aminopyrimidin-4-yl)pyridin-3-ol 3hydrochloride] as the compound, how does the concentration at 1 h [1, 4] read?
A: 296 ng/g

Q: What about the concentration at 4 h [1, 4] of the same compound?
A: 90.3 ng/g

Q: What about the concentration at 1 h [1, 2] of the same compound?
A: 768 ng/g

Q: What about the concentration at 4 h [1, 2] of the same compound?
A: 577 ng/g

Q: And the Kp at 1 h ([1]; 10 mg/kg, oral once 10 mg/kg)?
A: 1.05

Q: And the Kp at 4 h ([1]; 10 mg/kg, oral once 10 mg/kg)?
A: 1.04

Q: What about the Kp at 1 h ([1]; 30 mg/kg, oral once 30 mg/kg) of the same compound?
A: 2.76

Q: And the Kp at 4 h ([1]; 30 mg/kg, oral once 30 mg/kg)?
A: 4.49

Q: What about the concentration at 1 h [1, 5] of the same compound?
A: 283 ng/mL

Q: And the concentration at 4 h [1, 5]?
A: 86.5 ng/mL

Q: And the concentration at 1 h [1, 3]?
A: 278 ng/mL

Q: What about the concentration at 4 h [1, 3] of the same compound?
A: 129 ng/mL

Q: And the IC50 (CDK5/p25)?
A: 0.9 nM

Q: What about the GI50 (HCT116; 72 hrs) of the same compound?
A: 90 nM

Q: For `Cc1cc(-c2nc(-c3ccnc(N)c3F)ccc2O)nc(N)n1` [Example 71, 2′-amino-6-(2-amino-6-methylpyrimidin-4-yl)-3′-fluoro-[2,4′-bipyridin]-5-ol 3hydrochloride], which concentration at 1 h [1, 4] is on record?
A: 3120 ng/g

Q: What about the concentration at 4 h [1, 4] of the same compound?
A: 165 ng/g

Q: And the Kp at 1 h ([1]; 10 mg/kg, oral once 10 mg/kg)?
A: 2.26

Q: What about the Kp at 4 h ([1]; 10 mg/kg, oral once 10 mg/kg) of the same compound?
A: 3.18

Q: And the concentration at 1 h [1, 5]?
A: 1380 ng/mL

Q: What about the concentration at 4 h [1, 5] of the same compound?
A: 52.1 ng/mL

Q: What about the IC50 (CDK6/cyclinD3) of the same compound?
A: 29.8 nM

Q: And the IC50 (CDK4/cyclinD1)?
A: 125 nM

Q: And the IC50 (CDK5/p25)?
A: 0.3 nM

Q: And the GI50 (U-87MG; Homo sapiens, U-87 MG, 72 h)?
A: 10 nM

Q: And the GI50 (HCT116; 72 hrs)?
A: 10 nM

Q: Which results are given for `Nc1nccc(-c2ccc(O)c(-c3ccnc(N)n3)n2)n1` [Example 1, 2,6-bis(2-aminopyrimidin-4-yl)pyridin-3-ol]?
A: IC50 (CDK6/cyclinD3): > 200 nM; IC50 (CDK4/cyclinD1): 855 nM; IC50 (CDK5/p25): 2.4 nM; GI50 (U-87MG; Homo sapiens, U-87 MG, 72 h): 850 nM; GI50 (SH-SY5Y; Homo sapiens, SH-SY5Y, 72 h): 150 nM; GI50 (SK-N-SH; Homo sapiens, SK-N-SH, 72 h): 280 nM; GI50 (HCT116; 72 hrs): 150 nM

Q: For `Nc1cc(-c2ccc(O)c(-c3ccnc(N)n3)n2)ccn1` [Example 10, 2′-amino-6-(2-aminopyrimidin-4-yl)-[2,4′-bipyridin]-5-ol], which concentration at 1 h [1, 2] is on record?
A: 129 ng/g

Q: What about the concentration at 4 h [1, 2] of the same compound?
A: 23.2 ng/g

Q: What about the Kp at 1 h ([1]; 30 mg/kg, oral once 30 mg/kg) of the same compound?
A: 1.56

Q: What about the Kp at 4 h ([1]; 30 mg/kg, oral once 30 mg/kg) of the same compound?
A: 2.78

Q: What about the concentration at 1 h [1, 3] of the same compound?
A: 82.6 ng/mL

Q: What about the concentration at 4 h [1, 3] of the same compound?
A: 8.3 ng/mL

Q: And the IC50 (CDK6/cyclinD3)?
A: > 200 nM

Q: And the IC50 (CDK4/cyclinD1)?
A: 203 nM

Q: And the IC50 (CDK5/p25)?
A: 1.2 nM

Q: What about the GI50 (U-87MG; Homo sapiens, U-87 MG, 72 h) of the same compound?
A: 380 nM

Q: What about the GI50 (SH-SY5Y; Homo sapiens, SH-SY5Y, 72 h) of the same compound?
A: 110 nM

Q: What about the GI50 (SK-N-SH; Homo sapiens, SK-N-SH, 72 h) of the same compound?
A: 240 nM

Q: What about the GI50 (HCT116; Homo sapiens, HCT-116, 72 h) of the same compound?
A: 260 nM
